Source: patent publication US9963464B2, “Macrocyclic compounds” (Bayer Pharma Aktiengesellschaft, priority 2014, dated 2018)
pIC50: −log10 of the molar value.

What was measured:
CDK9/CycT1 = target: T1, CDK9/CycT1 (Homo sapiens, UniProt P50750); assay: CDK9/CycT1 kinase assay (TR-FRET, Method 1a); assay type: biochemical; conditions: for pIC50: Method 1a, 10 μM ATP; for Selectivity CDK9 over CDK2: IC50 (CDK2)/IC50 (CDK9): Methods 1a and 2a, minimal values where CDK9 IC50 is at the assay limit
T1 construct: Recombinant full-length His-tagged human CDK9 and CycT1; His; purchased Invitrogen PV4131; host or cells: insect cells
Excerpt: 1a. CDK9/CycT1 Kinase Assay:
CDK9/CycT1-inhibitory activity of compounds of the present invention was quantified employing the CDK9/CycT1 TR-FRET assay as described in the following paragraphs:
Recombinant full-length His-tagged human CDK9 and CycT1, expressed in insect cells and purified by Ni-NTA affinity chromatography, were purchased from Invitrogen (Cat. No PV4131). As substrate for the kinase reaction biotinylated peptide biotin-Ttds-YISPLKSPYKISEG (C-terminus in amid form) was used which can be purchased e.g. from the company JERINI Peptide Technologies (Berlin, Germany). For the assay 50 nl of a 100 fold concentrated solution of the test compound in DMSO was pipetted into a black low volume 384 well microtiter plate (Greiner Bio-One, Frickenhausen, Germany), 2 μl of a solution of CDK9/CycT1 in aqueous assay buffer [50 mM Tris/HCl pH 8.0, 10 mM MgCl2, 1.0 mM dithiothreitol, 0.1 mM sodium ortho-vanadate, 0.01% (v/v) Nonidet-P40 (Sigma)] were added and the mixture was incubated for 15 min at 22° C. to allow pre-binding of the test compounds to the enzyme before the start of the kinase reaction. […] The concentration of CDK9/CycT1 was adjusted depending of the activity of the enzyme lot and was chosen appropriate to have the assay in the linear range, typical concentrations were in the range of 1 μg/mL. The reaction was stopped by the addition of 5 μl of a solution of TR-FRET detection reagents (0.2 μM streptavidine-XL665 [Cisbio Bioassays, Codolet, France] and 1 nM anti-RB(pSer807/pSer811)-antibody from BD Pharmingen [#558389] and 1.2 nM LANCE EU-W1024 labeled anti-mouse IgG antibody [Perkin-Elmer, product no. AD0077]) in an aqueous EDTA-solution (100 mM EDTA, 0.2% (w/v) bovine serum albumin in 100 mM HEPES pH 7.5).
The resulting mixture was incubated 1 h at 22° C. to allow the formation of complex between the phosphorylated biotinylated peptide and the detection reagents. Subsequently the amount of phosphorylated substrate was evaluated by measurement of the resonance energy transfer from the Eu-chelate to the streptavidine-XL. Therefore, the fluorescence emissions at 620 nm and 665 nm after excitation at 350 nm was measured in a HTRF reader, e.g. a Rubystar (BMG Labtechnologies, Offenburg, Germany) or a Viewlux (Perkin-Elmer). The ratio of the emissions at 665 nm and at […] was taken as the measure for the amount of phosphorylated substrate. The data were normalised (enzyme reaction without inhibitor=0% inhibition, all other assay components but no enzyme=100% inhibition).

HeLa cells = assay: Proliferation assay HeLa; assay type: cell-based, human; conditions: Homo sapiens, HeLa, 96 h, 4 days, crystal violet; read-out: Inhibition of HeLa cell proliferation IC50
Procedure: (§1) Cultivated tumour cells (HeLa, human cervical tumour cells, ATCC CCL-2; NCI-H460, human non-small cell lung carcinoma cells, ATCC HTB-177; A2780, human ovarian carcinoma cells, ECACC #93112519; DU 145, hormone-independent human prostate carcinoma cells, ATCC HTB-81; HeLa-MaTu-ADR, multidrug-resistant human cervical carcinoma cells, EPO-GmbH Berlin; Caco-2, human colorectal carcinoma cells, ATCC HTB-37; B16F10, mouse melanoma cells, ATCC CRL-6475) were plated at a density of 5,000 cells/well (DU145, HeLa-MaTu-ADR), 3,000 cells/well (NCI-H460, HeLa), 2,500 cells/well (A2780), 1,500 cells/well (Caco-2), or 1,000 cells/well (B16F10) in a 96-well multititer plate in 200 μL of their respective growth medium supplemented 10% fetal calf serum. After 24 hours, the cells of one plate (zero-point plate) were stained with crystal violet (see below), while the medium of the other plates was replaced by fresh culture medium (200 μl), to which the test substances were added in various concentrations (0 μM, as well as in the range of 0.001-10 μM). The cells were incubated for 4 days in the presence of test substances. Cell proliferation was determined by staining the cells with crystal violet: the cells were fixed by adding 20 μl/measuring point of an 11% glutaric aldehyde solution for 15 minutes at room temperature. After three washing cycles of the fixed cells with water, the plates were dried at room temperature. The cells were stained by adding 100 μl/measuring point of a 0.1% crystal violet solution (pH 3.0). After three washing cycles of the stained cells with water, the plates were dried at room temperature. The dye was dissolved by adding 100 μl/measuring point of a 10% acetic acid solution. The extinction was determined by photometry at a wavelength of 595 nm. The change of cell number, in percent, was calculated by normalization of the measured values to the extinction values of the zero-point plate (=0%) and the extinction of the untreated (0 μm) cells (=100%). The IC50 values (inhibitory concentration at 50% of maximal effect) were determined by means of a 4 parameter fit. Non-adherent MOLM-13 human acute myeloid leukemia cells (DSMZ ACC 554) were seeded at a density of 5,000 cells/well in a 96-well multititer plate in 100 μL of growth medium supplemented 10% fetal calf serum. After 24 hours, cell viability of one plate (zero-point plate) was determined with the Cell Titre-Glo Luminescent Cell Viability Assay (Promega), while 50 μL of test compound containing medium was added to the wells of the other plates (final concentrations in the range of 0.001-1 μM and DMSO controls). Cell viability was assessed after 72-hour exposure with the Cell Titre-Glo Luminescent Cell Viability Assay (Promega). IC50 values (inhibitory concentration at 50% of maximal effect) were determined by means of a 4 parameter fit on measurement data which were normalized to vehicle (DMSO) treated cells (=100%) and measurement readings taken immediately before compound exposure (=0%).

Caco-2 cells = assay: Proliferation assay Caco-2; assay type: cell-based, human; conditions: Homo sapiens, Caco-2, 96 h, 4 days, crystal violet; read-out: Inhibition of Caco-2 cell proliferation IC50
Procedure: as §1

HeLa-MaTu-ADR cells = assay: Proliferation assay HeLa-MaTu-ADR; assay type: cell-based, human; conditions: Homo sapiens, 96 h, 4 days, crystal violet; read-out: Inhibition of HeLa-MaTu-ADR cell proliferation IC50
Procedure: as §1

T1 sequence (P50750 whole entry): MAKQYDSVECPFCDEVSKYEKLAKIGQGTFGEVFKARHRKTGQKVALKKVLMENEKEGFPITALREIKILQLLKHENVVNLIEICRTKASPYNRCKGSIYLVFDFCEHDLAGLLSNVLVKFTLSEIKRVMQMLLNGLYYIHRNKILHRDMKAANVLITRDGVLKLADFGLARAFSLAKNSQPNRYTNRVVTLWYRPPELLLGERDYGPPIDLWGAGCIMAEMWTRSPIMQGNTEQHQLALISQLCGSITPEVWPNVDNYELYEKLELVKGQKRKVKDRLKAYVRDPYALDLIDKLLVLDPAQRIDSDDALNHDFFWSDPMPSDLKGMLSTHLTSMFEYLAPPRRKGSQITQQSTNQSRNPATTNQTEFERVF
T1 sequence (O60563 whole entry partner): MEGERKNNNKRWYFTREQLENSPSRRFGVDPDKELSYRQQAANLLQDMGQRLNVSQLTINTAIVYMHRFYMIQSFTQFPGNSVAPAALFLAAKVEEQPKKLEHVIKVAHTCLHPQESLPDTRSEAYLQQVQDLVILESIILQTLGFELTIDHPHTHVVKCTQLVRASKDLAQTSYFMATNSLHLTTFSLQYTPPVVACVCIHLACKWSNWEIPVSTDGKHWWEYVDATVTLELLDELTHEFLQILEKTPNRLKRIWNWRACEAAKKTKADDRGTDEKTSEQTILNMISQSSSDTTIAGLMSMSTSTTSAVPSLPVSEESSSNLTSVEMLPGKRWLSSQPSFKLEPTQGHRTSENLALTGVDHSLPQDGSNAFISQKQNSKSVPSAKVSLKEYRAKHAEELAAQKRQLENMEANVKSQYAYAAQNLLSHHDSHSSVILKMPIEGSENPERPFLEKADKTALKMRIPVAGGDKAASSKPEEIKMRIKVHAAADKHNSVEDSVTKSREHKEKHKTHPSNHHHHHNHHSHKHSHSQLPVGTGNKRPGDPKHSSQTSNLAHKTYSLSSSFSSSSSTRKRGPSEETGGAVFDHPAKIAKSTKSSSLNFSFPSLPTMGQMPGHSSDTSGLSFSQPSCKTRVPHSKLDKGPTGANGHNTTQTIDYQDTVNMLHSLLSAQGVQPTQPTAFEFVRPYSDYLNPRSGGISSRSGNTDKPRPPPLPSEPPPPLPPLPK

| SMILES | pIC50 (CDK9/CycT1) | Selectivity CDK9 over CDK2: IC50 (CDK2)/IC50 (CDK9) (CDK9/CycT1) | pIC50 (HeLa cells) | pIC50 (Caco-2 cells) | pIC50 (HeLa-MaTu-ADR cells) |
| --- | --- | --- | --- | --- | --- |
| CS(=N)(=O)Cc1cc2cc(c1)OCCCCOc1cc(F)ccc1-c1nc(ncc1F)N2 (racemic) [Example 1, (rac)-16,20-Difluoro-9-[(S-methylsulfonimidoyl)methyl]-2,3,4,5-tetrahydro-12H-13,17-(azeno)-11,7-(metheno)-1,6,12,14-benzodioxadiazacyclononadecine] | 8.54 | 7.4 | 8.10 | 8.05 | – |
| C[S+]([O-])Cc1cc2nc(c1)OCCCOc1cc(F)ccc1-c1cc(ncc1F)N2 (racemic) [Example 4, (rac)-15,19-Difluoro-8-[(methylsulfinyl)methyl]-3,4-dihydro-2H,11H-10,6-(azeno)-12,16-(metheno)-1,5,11,13-benzodioxadiazacyclooctadecine] | 8.55 | 1.7 | 8.40 | 8.00 | 8.00 |
| CS(=N)(=O)Cc1cc2nc(c1)OCCCOc1cc(F)ccc1-c1cc(ncc1F)N2 (racemic) [Example 5, (rac)-15,19-Difluoro-8-[(S-methylsulfonimidoyl)methyl]-3,4-dihydro-2H,11H-10,6-(azeno)-12,16-(metheno)-1,5,11,13-benzodioxadiazacyclooctadecine] | 8.52 | 0.65 | 8.70 | 8.40 | – |
| C[S+]([O-])Cc1cc2nc(c1)OCCOc1cc(F)ccc1-c1cc(ncc1F)N2 (racemic) [Example 10, (rac)-14,18-difluoro-7-[(methylsulfinyl)methyl]-2,3-dihydro-10H-9,5-(azeno)-11,15-(metheno)-1,4,10,12-benzodioxadiazacycloheptadecine] | 8.14 | 56.5 | 6.71 | 6.23 | 6.32 |
| CS(=N)(=O)Cc1cc2nc(c1)OCCOc1cc(F)ccc1-c1cc(ncc1F)N2 (racemic) [Example 11, (rac)-14,18-difluoro-7-[(S-methylsulfonimidoyl)methyl]-2,3-dihydro-10H-9,5-(azeno)-11,15-(metheno)-1,4,10,12-benzodioxadiazacycloheptadecine] | 8.60 | 72.6 | 7.03 | 6.80 | 6.73 |
| C[S+]([O-])Cc1cc2nc(c1)OCCCCOc1cc(F)ccc1-c1cc(ncc1F)N2 (racemic) [Example 13, (rac)-16,20-difluoro-9-[(methylsulfinyl)methyl]-2,3,4,5-tetrahydro-12H-11,7-(azeno)-13,17-(metheno)-1,6,12,14-benzodioxadiazacyclononadecine] | 8.40 | 4.2 | – | 7.66 | 7.51 |
| CS(=N)(=O)Cc1cc2nc(c1)OCCCCOc1cc(F)ccc1-c1cc(ncc1F)N2 (racemic) [Example 14, (rac)-16,20-difluoro-9-[(S-methylsulfonimidoyl)methyl]-2,3,4,5-tetrahydro-12H-11,7-(azeno)-13,17-(metheno)-1,6,12,14-benzodioxadiazacyclononadecine] | 8.32 | 4.1 | 7.96 | 7.89 | 7.70 |
| CS(=N)(=O)Cc1cc2cc(c1)OCCCOc1cc(F)ccc1-c1nc(ncc1F)N2 (racemic) [Example 15, (rac)-15,19-difluoro-8-[(S-methylsulfonimidoyl)methyl]-3,4-dihydro-2H,11H-12,16-(azeno)-10,6-(metheno)-1,5,11,13-benzodioxadiazacyclooctadecine] | 8.42 | 6.8 | 8.05 | 7.77 | 7.85 |
| CS(=O)(Cc1cc2cc(c1)OCCCOc1cc(F)ccc1-c1nc(ncc1F)N2)=NC(=O)C(F)(F)F (racemic) [Example 16, (rac)-N-[{[15,19-difluoro-3,4-dihydro-2H,11H-12,16-(azeno)-10,6-(metheno)-1,5,11,13-benzodioxadiazacyclooctadecin-8-yl]methyl}(methyl)oxido-λ^6-sulfanylidene]-2,2,2-trifluoroacetamide] | 8.41 | 14.8 | 8.00 | 7.82 | 7.92 |
| CCNC(=O)N=S(C)(=O)Cc1cc2nc(c1)OCCCOc1cc(F)ccc1-c1cc(ncc1F)N2 (racemic) [Example 17, (rac)-1-[{[15,19-difluoro-3,4-dihydro-2H,11H-10,6-(azeno)-12,16-(metheno)-1,5,11,13-benzodioxadiazacyclooctadecin-8-yl]methyl}(methyl)oxido-λ^6-sulfanylidene]-3-ethylurea] | 8.36 | 1.3 | 7.96 | 7.68 | 7.60 |
| CC(=O)N=S(C)(=O)Cc1cc2nc(c1)OCCCOc1cc(F)ccc1-c1cc(ncc1F)N2 (racemic) [Example 18, (rac)-N-[{[15,19-difluoro-3,4-dihydro-2H,11H-10,6-(azeno)-12,16-(metheno)-1,5,11,13-benzodioxadiazacyclooctadecin-8-yl]methyl}(methyl)oxido-λ^6-sulfanylidene]acetamide] | 8.31 | 1.7 | 8.00 | 7.85 | 8.00 |
| CSCc1cc2nc(c1)OCCOc1cc(F)ccc1-c1cc(ncc1F)N2 [Example 9, 14,18-Difluoro-7-[(methylsulfanyl)methyl]-2,3-dihydro-10H-9,5-(azeno)-11,15-(metheno)-1,4,10,12-benzodioxadiazacycloheptadecine] | 7.74 | 963.7 | – | 6.09 | – |
